Measurements as given in ChEMBL document CHEMBL5523703, “Modulators for palmitoylation of proteins and small molecules” (Eur J Med Chem, 2024).
Where a name gives a salt, the structure may show the parent alone.

Columns and labels:
[1] = target: T1, Carnitine O-palmitoyltransferase 1, liver isoform (Homo sapiens, UniProt P50416); assay: Inhibition of human CPT1
T1 sequence (P50416 whole entry): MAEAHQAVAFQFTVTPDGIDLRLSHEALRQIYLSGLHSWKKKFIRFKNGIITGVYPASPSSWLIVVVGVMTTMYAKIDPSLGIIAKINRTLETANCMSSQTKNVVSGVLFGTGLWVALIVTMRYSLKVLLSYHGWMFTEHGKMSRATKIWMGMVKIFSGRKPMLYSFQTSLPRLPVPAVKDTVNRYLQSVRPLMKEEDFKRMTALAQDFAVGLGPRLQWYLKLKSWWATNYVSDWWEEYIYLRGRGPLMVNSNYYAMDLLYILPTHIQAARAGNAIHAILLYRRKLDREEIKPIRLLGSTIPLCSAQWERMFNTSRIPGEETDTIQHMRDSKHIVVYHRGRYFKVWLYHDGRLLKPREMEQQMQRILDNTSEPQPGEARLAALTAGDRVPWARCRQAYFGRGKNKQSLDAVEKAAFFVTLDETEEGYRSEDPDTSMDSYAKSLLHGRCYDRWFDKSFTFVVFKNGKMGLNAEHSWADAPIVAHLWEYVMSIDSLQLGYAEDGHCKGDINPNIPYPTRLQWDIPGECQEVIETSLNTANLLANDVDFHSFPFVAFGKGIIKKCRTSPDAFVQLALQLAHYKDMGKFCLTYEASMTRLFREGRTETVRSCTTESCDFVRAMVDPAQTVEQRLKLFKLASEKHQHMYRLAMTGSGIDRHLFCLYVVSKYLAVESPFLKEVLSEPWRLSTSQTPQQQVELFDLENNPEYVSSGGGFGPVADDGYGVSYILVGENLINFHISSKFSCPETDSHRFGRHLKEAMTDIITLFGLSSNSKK

[2] = target: Carnitine O-palmitoyltransferase 2, mitochondrial (Homo sapiens, UniProt P23786); assay: Inhibition of human CPT2
[3] = Inhibition of SPT in mouse Neuro2a cells; format: cell-based
[4] = Inhibition of SPT (unknown origin); set-up: species or system Homo sapiens
[5] = target: Non-structural protein 4b (Hepacivirus hominis, UniProt F5B4I0); assay: Inhibition of Hepatitis C virus genotype 1a NS4B
[6] = target: Palmitoyltransferase ZDHHC7 (Homo sapiens, UniProt Q9NXF8); assay: Inhibition of ZDHHC7 (unknown origin)
[7] = target: Palmitoyltransferase ZDHHC3 (Homo sapiens, UniProt Q9NYG2); assay: Inhibition of ZDHHC3 (unknown origin)
[8] = target: Serine palmitoyltransferase small subunit B (Homo sapiens, UniProt Q8NFR3); assay: Inhibition of SPTSSB (unknown origin) expressed in HEK293T cells; format: cell-based
[9] = test system: Plasmodium falciparum; assay: […] activity against Plasmodium falciparum assessed as reduction in microbial growth; format: functional
[10] = target: T2, Transcriptional enhancer factor TEF-1 (Homo sapiens, UniProt P28347); assay: Inhibition of N-terminal His-tagged human TEAD1 expressed in Escherichia coli BL21 (DE3) (209 to 424 residues) by affinity chromatography analysis
[11] = test system: NCI-H226; assay: Antitumor activity against human NCI-H226 cells xenografted in CDX mouse model assessed as reduction in tumor growth at 30 mg/kg relative to control; format: functional; set-up: scale not given: the % may be the effect or the level left
[12] = test system: NCI-H226; assay: Antitumor activity against human NCI-H226 cells xenografted in CDX mouse model assessed as reduction in tumor growth at 75 mg/kg relative to control; format: functional; set-up: scale not given: the % may be the effect or the level left
[13] = target: T1, Carnitine O-palmitoyltransferase 1, liver isoform; assay: Inhibition of CPT1 (unknown origin)
[14] = target: T1, Carnitine O-palmitoyltransferase 1, liver isoform; assay: Binding affinity to CPT1 (unknown origin) assessed as inhibition constant
[15] = test system: LN-18; assay: Antitumor activity against human LN-18 cells assessed as reduction in cell growth incubated for 72 hrs in presence of sirtuins inhibitor by crystal violet staining based analysis; format: functional; settings: LN-18, 72 h
[16] = Binding affinity to SPT (unknown origin) assessed as inhibition constant; set-up: species or system Homo sapiens
[17] = test system: CCF-STTG1; assay: Antiproliferative activity against human CCF-STTG1 cells assessed as reduction in cell growth; format: functional, cell-based
[18] = Inhibition of Candida albicans serine palmitoyltransferase
[19] = target: T3, Carnitine O-palmitoyltransferase 1, liver isoform (Rattus norvegicus, UniProt P32198); assay: Binding affinity to rat liver mitochondria CPT1 assessed as inhibition constant incubated for 3 to 6 mins by Liquid scintillation counting method
T3 sequence (P32198 whole entry): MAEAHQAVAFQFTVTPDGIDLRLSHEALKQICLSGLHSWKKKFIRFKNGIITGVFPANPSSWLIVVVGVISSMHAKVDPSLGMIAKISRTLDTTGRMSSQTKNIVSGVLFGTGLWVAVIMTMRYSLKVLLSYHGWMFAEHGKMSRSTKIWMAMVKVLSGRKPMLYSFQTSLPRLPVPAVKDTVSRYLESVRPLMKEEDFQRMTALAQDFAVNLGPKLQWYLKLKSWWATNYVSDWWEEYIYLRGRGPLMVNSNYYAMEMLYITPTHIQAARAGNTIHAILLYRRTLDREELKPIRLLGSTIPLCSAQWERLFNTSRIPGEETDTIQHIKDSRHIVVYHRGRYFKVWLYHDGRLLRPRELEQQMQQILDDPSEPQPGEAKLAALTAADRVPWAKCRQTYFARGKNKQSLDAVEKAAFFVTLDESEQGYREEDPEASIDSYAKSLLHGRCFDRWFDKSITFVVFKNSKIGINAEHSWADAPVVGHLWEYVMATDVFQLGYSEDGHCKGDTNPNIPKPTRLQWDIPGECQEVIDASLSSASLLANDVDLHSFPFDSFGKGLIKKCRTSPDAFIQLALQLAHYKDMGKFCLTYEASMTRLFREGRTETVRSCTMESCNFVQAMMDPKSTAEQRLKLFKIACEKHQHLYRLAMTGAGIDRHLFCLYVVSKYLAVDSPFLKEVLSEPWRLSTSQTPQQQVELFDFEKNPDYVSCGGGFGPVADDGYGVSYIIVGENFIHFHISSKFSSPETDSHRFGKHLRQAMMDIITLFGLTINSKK

[20] = target: T2, Transcriptional enhancer factor TEF-1; assay: Inhibition of N-terminal 6His-tagged human TEAD1 YAP-binding domain (209 to 426 residues) expressed in Escherichia coli BL21 (DE3)
[21] = Inhibition of N-terminal 6His-tagged human TEAD1 YAP-binding domain (219 to 435 residues) expressed in Escherichia coli BL21 (DE3)
[22] = test system: MCF7; assay: Antiproliferative activity against human MCF7 cells assessed as reduction in cell growth measured after 72 hrs by MTT assay; format: functional, cell-based; settings: MCF7, 72 h
[23] = organism: Homo sapiens; assay: Inhibition of ZDHHC (unknown origin) at 20 uM relative to control
[24] = target: T1, Carnitine O-palmitoyltransferase 1, liver isoform; assay: Inhibition of CPT1A (unknown origin)
[25] = target: T4, Carnitine O-palmitoyltransferase 1, muscle isoform (Homo sapiens, UniProt Q92523); assay: Inhibition of CPT1B (unknown origin)
T4 sequence (Q92523 whole entry): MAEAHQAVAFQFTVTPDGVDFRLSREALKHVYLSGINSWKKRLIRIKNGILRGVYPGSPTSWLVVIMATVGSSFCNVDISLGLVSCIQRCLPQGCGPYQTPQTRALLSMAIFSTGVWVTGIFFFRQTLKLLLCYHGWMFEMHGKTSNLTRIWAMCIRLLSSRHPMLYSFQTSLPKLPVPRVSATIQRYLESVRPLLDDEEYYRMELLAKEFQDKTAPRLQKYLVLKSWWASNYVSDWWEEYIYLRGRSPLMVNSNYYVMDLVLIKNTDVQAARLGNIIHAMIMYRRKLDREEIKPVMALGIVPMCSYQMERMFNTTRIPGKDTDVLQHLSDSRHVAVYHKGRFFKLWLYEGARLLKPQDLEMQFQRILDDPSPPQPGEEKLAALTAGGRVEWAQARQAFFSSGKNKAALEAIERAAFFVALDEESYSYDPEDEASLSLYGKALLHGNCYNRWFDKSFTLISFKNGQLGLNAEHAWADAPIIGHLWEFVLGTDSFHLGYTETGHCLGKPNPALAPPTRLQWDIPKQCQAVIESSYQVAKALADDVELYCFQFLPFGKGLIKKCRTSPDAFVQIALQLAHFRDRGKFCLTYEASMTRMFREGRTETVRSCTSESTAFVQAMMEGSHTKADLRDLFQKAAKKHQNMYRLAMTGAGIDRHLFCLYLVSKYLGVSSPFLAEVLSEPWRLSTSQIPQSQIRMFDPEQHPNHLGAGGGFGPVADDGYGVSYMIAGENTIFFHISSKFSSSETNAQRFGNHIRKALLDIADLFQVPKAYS

[26] = Half life in mouse by LC-MS/MS analysis; format: ADME; settings: in vivo, route po

T2 sequence (P28347 whole entry, the tested form may be a part): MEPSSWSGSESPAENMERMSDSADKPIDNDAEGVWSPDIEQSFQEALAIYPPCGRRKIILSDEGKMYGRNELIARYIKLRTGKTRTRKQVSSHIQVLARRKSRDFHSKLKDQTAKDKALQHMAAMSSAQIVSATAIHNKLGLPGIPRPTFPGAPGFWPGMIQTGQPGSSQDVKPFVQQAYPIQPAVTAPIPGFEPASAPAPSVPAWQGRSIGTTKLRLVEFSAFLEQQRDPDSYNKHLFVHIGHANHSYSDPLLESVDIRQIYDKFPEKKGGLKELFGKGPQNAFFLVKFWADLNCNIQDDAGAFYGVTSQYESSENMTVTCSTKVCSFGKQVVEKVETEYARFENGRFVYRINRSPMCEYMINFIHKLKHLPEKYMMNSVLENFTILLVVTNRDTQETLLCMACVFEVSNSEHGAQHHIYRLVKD
Chain of Serine palmitoyltransferase small subunit B (Q8NFR3 whole entry): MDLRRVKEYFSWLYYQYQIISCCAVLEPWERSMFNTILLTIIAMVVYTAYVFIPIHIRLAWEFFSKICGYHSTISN
Chain of Non-structural protein 4b (F5B4I0 whole entry): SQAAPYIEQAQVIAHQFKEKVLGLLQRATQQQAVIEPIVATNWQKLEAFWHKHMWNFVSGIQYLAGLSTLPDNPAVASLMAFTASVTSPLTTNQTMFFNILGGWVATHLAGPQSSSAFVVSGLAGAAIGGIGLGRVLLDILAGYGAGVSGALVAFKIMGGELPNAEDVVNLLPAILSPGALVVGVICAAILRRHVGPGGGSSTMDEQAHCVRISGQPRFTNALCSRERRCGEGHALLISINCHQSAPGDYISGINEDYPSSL
Chain of Carnitine O-palmitoyltransferase 2, mitochondrial (P23786 whole entry): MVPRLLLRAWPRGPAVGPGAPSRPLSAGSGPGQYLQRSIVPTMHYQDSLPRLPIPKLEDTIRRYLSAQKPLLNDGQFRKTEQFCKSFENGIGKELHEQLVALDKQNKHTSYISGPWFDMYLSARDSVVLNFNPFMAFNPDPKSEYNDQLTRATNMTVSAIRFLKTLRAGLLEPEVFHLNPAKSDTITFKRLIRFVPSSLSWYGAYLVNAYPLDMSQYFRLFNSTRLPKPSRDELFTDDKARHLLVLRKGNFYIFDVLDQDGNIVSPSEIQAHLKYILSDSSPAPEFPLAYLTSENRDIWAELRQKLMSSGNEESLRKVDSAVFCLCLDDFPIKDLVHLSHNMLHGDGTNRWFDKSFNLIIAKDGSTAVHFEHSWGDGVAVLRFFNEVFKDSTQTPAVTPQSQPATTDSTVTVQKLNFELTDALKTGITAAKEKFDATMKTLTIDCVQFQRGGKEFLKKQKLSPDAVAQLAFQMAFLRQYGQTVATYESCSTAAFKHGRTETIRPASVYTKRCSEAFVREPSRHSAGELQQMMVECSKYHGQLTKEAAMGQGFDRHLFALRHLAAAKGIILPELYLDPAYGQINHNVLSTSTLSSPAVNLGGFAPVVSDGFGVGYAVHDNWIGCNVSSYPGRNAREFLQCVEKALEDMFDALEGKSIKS
Chain of Palmitoyltransferase ZDHHC7 (Q9NXF8 whole entry): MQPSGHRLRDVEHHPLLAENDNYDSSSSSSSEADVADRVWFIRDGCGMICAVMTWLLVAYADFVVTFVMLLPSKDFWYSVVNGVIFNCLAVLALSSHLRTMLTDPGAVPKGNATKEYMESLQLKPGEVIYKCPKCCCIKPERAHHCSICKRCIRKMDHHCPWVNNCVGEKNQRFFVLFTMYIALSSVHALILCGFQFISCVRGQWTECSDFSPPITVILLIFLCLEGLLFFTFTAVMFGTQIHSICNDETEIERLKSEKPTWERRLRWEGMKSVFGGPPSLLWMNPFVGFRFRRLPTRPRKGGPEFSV
Chain of Palmitoyltransferase ZDHHC3 (Q9NYG2 whole entry): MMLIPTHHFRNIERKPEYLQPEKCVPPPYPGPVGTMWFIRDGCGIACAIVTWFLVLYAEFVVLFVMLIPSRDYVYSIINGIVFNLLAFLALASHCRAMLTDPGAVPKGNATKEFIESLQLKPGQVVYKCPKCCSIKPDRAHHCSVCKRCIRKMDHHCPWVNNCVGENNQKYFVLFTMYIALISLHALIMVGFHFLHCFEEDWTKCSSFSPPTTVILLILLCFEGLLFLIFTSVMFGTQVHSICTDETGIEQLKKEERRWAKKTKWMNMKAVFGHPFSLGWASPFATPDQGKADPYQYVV

COc1cccc2c1C(=O)c1c(O)c3c(c(O)c1C2=O)C[C@@](O)(C(=O)CO)C[C@@H]3O[C@H]1C[C@H](N)[C@H](O)[C@H](C)O1 [DOXORUBICIN HYDROCHLORIDE]
IC50 [1]: 250000 nM
IC50 [2]: > 100000 nM

CNC(=O)c1ccc2c(c1)CC(=O)N2C1CCN(CC(=O)N2CC3CCCC3C2)CC1 (stereo unspecified)
IC50 [3]: 9500 nM
IC50 [4]: 27.3 nM

CC#CCOc1ccc(C[C@H](NC(=O)[C@@H](/C=C/CCCCCCC(=O)CCCCCCC)[C@@](O)(CC(C)=O)C(=O)O)C(=O)O)cc1
IC50 [5]: 18.9 nM

CCCCCCCCCCCCCCC(Br)C(=O)SCCNC(C)=O (stereo unspecified)
IC50 [6]: 4400 nM
IC50 [7]: ~50000 nM

CC(C)=CCC[C@]1(C)C=Cc2c(O)c3c(c(CC=C(C)C)c2O1)O[C@]12C(=C[C@@H]4C[C@H]1C(C)(C)O[C@@]2(C/C=C(/C)C(=O)O)C4=O)C3=O [GAMBOGIC ACID]
IC50 [8]: 2180 nM

CCCCCCCCCCCCOC(=O)[C@@H](N)CC(C)C
MIC [9]: 0.78 µg/mL

C=C(F)C(=O)N1C[C@@H](Nc2ncccn2)[C@H](OCc2ccc(C(F)(F)F)cc2)C1
IC50 [10]: 11 nM
Activity [11]: 54%
Activity [12]: 68%

CCCCCCCCCCCCCCNC(=O)N[C@H](CC(=O)[O-])C[N+](C)(C)C
IC50 [13]: 680 nM
Ki [14]: 360 nM

CC(C)(C)NC1CCN(c2cc(NCc3ccc(Cl)cc3)nc3ccccc23)CC1 [EZURPIMTROSTAT]
IC50 [15]: 220 nM

C/C(=C\CC12OC(C)(C)C3CC(C=C4C(=O)c5c(O)cccc5OC431)C2=O)COC(=O)c1cccnc1 (stereo unspecified)
Ki [16]: 1700 nM
IC50 [17]: 2290 nM

CCCCCCCC(=O)CCCCCC/C=C/[C@H](C(=O)N[C@@H](Cc1ccc(O)cc1)C(=O)O)[C@@](O)(CC(=O)O)C(=O)O
IC50 [18]: 22 nM

CCCCCCCCCCCCCCCC1(O)C[C@H](CC(=O)[O-])C[N+](C)(C)C1 (single isomer, unassigned)
Ki [19]: 4200 nM

C=CC(=O)N1CCC(CCOc2ccccc2)CC1
IC50 [20]: 610 nM
IC50 [21]: 580 nM

C=CC(=O)NCc1ccc(OC(=O)c2cccc(Oc3ccccc3)c2)cc1
IC50 [22]: 50000 nM
inhibition [23]: 89.5%

CCCCCCOc1cccc(OCCCCNC(=O)N[C@H](CC(=O)[O-])C[N+](C)(C)C)c1
IC50 [24]: 130 nM
IC50 [25]: 5440 nM

CNS(=O)(=O)c1ccc(Nc2ccc(C(F)(F)F)cc2)c(-c2cn(C)cn2)c1
half-life [26]: 13.2 h
